Experimental data from patent publication US5413990A, “N-terminus modified analogs of LHRH” (Tap Pharmaceuticals Inc., priority 1993, dated 1995).
Numbered stars: 1 amine (or outer) side, 2 acyl side, 3 side chain; on linkers, the order of the positions; unused ones are H or OH. Square brackets hold non-standard residues; d marks the D form. Peptide text beside a SMILES is read from it. * marks the point of attachment. dPhe(4-Cl) = N[C@H](Cc1ccc(Cl)cc1)C(=O)O; NH(2-(2-pyridyl)ethyl) = c1ccc(CCN*)nc1; NH(2-morpholinoethyl) = C(CN1CCOCC1)N*; d2Nal = N[C@H](Cc1ccc2ccccc2c1)C(=O)O; NMeY = CN[C@@H](Cc1ccc(O)cc1)C(=O)O; NHCH2(2-pyridyl) = c1ccc(CN*)nc1; Piperazinyl(4-Me) = CN1CCN(*)CC1; dCit = NC(=O)NCCC[C@@H](N)C(=O)O; d3Pal = N[C@H](Cc1cccnc1)C(=O)O; NH(3-picolyl) = c1cncc(CN*)c1; CO = O=C([*:1])[*:2]

Target: T1, LHRH (Rattus norvegicus, UniProt P30969)
T1 construct: evaluated in an in vitro test for LHRH antagonist potency (pA2); endogenous in cells; host or cells: pituitary cells (rat, from my own knowledge of the cited method)
T1 sequence (P30969 1-327): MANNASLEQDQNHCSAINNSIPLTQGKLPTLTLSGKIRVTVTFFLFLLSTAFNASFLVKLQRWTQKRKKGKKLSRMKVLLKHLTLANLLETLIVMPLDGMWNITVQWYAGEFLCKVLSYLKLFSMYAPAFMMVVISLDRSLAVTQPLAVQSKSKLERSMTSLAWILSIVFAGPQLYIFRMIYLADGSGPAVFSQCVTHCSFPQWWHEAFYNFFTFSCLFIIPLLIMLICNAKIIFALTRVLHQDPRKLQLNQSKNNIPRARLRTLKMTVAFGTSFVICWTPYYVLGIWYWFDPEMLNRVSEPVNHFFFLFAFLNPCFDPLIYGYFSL
Test: in vitro test for LHRH antagonist potency (pA2)
Format: cell-based
Details: negative logarithm of the antagonist concentration required to shift the response curve produced by the agonist leuprolide to two-fold higher concentration
Description: Representative compounds of the present invention were evaluated in an in vitro test for LHRH antagonist potency (pA2). The test employed the method detailed in F. Haviv, et al. J. Med. Chem., 32:2340-2344 (1989). The values of pA2 are the negative logarithms of the concentration of the particular antagonist test compound required to shift the response curve produced by the agonist leuprolide to two-fold higher concentration. (Leuprolide is the LHRH agonist having the structure 5-oxo-Pro^1 -His^2 -Trp^3 -Ser^4 -Tyr^5 -D-Leu^6 -Leu^7 -Arg^8 -Pro^9 -NHEt and is disclosed and claimed in U.S. Pat. No. 4,005,063.) Typically pA2 values of 9.5 or greater are indicative of good LHRH antagonist potency, with values of 10.0 or greater being preferred.

| Structure (SMILES) | Kb [nM] |
| --- | --- |
| CC(C)C[C@H](NC(=O)[C@@H](CCCNC(N)=O)NC(=O)[C@H](Cc1ccc(O)cc1)N(C)C(=O)[C@H](CO)NC(=O)[C@@H](Cc1cccnc1)NC(=O)[C@@H](Cc1ccc(Cl)cc1)NC(=O)[C@@H](Cc1ccc2ccccc2c1)NC(=O)NCCN1CCOCC1)C(=O)N[C@@H](CCCNC(=N)N)C(=O)N1CCC[C@H]1C(=O)N[C@H](C)C(N)=O [Example 8c, N-(Morpholinoethylaminocarbonyl)-D2Nal-D4ClPhe-D3Pal-Ser-NMeTyr-DCit-Leu-Arg-Pro-DAlaNH2] ({NH(2-morpholinoethyl)-CO}-[d2Nal][dPhe(4-Cl)][d3Pal]S[NMeY][dCit]LRP[dA]-NH2) | 0.049 |
| CC(C)C[C@H](NC(=O)[C@@H](CCCNC(N)=O)NC(=O)[C@H](Cc1ccc(O)cc1)N(C)C(=O)[C@H](CO)NC(=O)[C@@H](Cc1cccnc1)NC(=O)[C@@H](Cc1ccc(Cl)cc1)NC(=O)[C@@H](Cc1ccc2ccccc2c1)NC(=O)N1CCN(C)CC1)C(=O)N[C@@H](CCCNC(=N)N)C(=O)N1CCC[C@H]1C(=O)N[C@H](C)C(N)=O [Example 8d, N-(N'-Methylpiperazinylcarbonyl)-D2Nal-D4ClPhe-D3Pal-Ser-NMeTyr-DCit-Leu-Arg-Pro-DAlaNH2] ({Piperazinyl(4-Me)-CO}-[d2Nal][dPhe(4-Cl)][d3Pal]S[NMeY][dCit]LRP[dA]-NH2) | 0.0398 |
| CC(C)C[C@H](NC(=O)[C@@H](CCCNC(N)=O)NC(=O)[C@H](Cc1ccc(O)cc1)N(C)C(=O)[C@H](CO)NC(=O)[C@@H](Cc1cccnc1)NC(=O)[C@@H](Cc1ccc(Cl)cc1)NC(=O)[C@@H](Cc1ccc2ccccc2c1)NC(=O)NCc1ccccn1)C(=O)N[C@@H](CCCNC(=N)N)C(=O)N1CCC[C@H]1C(=O)N[C@H](C)C(N)=O [Example 8e, N-(2-Pyridyhnethylaminocarbonyl)-D2Nal-D4ClPhe-D3Pal- Ser-NMeTyr-DCit-Leu-Arg-Pro-DAlaNH2] ({NHCH2(2-pyridyl)-CO}-[d2Nal][dPhe(4-Cl)][d3Pal]S[NMeY][dCit]LRP[dA]-NH2) | 0.00676 |
| CC(C)C[C@H](NC(=O)[C@@H](CCCNC(N)=O)NC(=O)[C@H](Cc1ccc(O)cc1)N(C)C(=O)[C@H](CO)NC(=O)[C@@H](Cc1cccnc1)NC(=O)[C@@H](Cc1ccc(Cl)cc1)NC(=O)[C@@H](Cc1ccc2ccccc2c1)NC(=O)NCc1cccnc1)C(=O)N[C@@H](CCCNC(=N)N)C(=O)N1CCC[C@H]1C(=O)N[C@H](C)C(N)=O [Example 8f, N-(3-Pyridyhnethylaminocarbonyl)-D2Nal-D4ClPhe-D3Pal-Ser-NMeTyr-DCit-Leu-Arg-Pro-DAlaNH2] ({NH(3-picolyl)-CO}-[d2Nal][dPhe(4-Cl)][d3Pal]S[NMeY][dCit]LRP[dA]-NH2) | 0.0363 |
| CC(C)C[C@H](NC(=O)[C@@H](CCCNC(N)=O)NC(=O)[C@H](Cc1ccc(O)cc1)N(C)C(=O)[C@H](CO)NC(=O)[C@@H](Cc1cccnc1)NC(=O)[C@@H](Cc1ccc(Cl)cc1)NC(=O)[C@@H](Cc1ccc2ccccc2c1)NC(=O)NCCc1ccccn1)C(=O)N[C@@H](CCCNC(=N)N)C(=O)N1CCC[C@H]1C(=O)N[C@H](C)C(N)=O [Example 8g, N-(2-Pyridylethylaminocarbonyl)-D2Nal-D4ClPhe-D3Pal-Ser-NMeTyr-DCit-Leu-Arg-Pro-DAlaNH2] ({NH(2-(2-pyridyl)ethyl)-CO}-[d2Nal][dPhe(4-Cl)][d3Pal]S[NMeY][dCit]LRP[dA]-NH2) | 0.0178 |
